According to ChEMBL document CHEMBL4765253, “Discovery, synthesis, and optimization of an N-alkoxy indolylacetamide against HIV-1 carrying NNRTI-resistant mutations from the Isatis indigotica root” (Eur J Med Chem, 2020):

Tests used:
[1] = system: HEK-293T; experiment: Cytotoxicity against human HEK 293T cells assessed as reduction in cell viability measured after 48 hrs by Celltiter-glo assay; assay type: cell-based
[2] = system: Human immunodeficiency virus 1; experiment: (§1) Antiviral activity against VSVG/HIV-1 harboring reverse transcriptase K103N mutant infected in human HEK 293T cells assessed as inhibition of virus replication preincubated with cells for 15 mins prior to viral infection and measured at 48 hrs post-infection by luciferase reporter gene assay; assay type: functional, organism-based, HEK293T; details: Human immunodeficiency virus 1, HEK-293T
[3] = system: Human immunodeficiency virus 1; assay type: functional, organism-based, HEK293T
[4] = system: Human immunodeficiency virus 1; assay type: functional, organism-based, HEK293T; remark: listed apart in the source
[5] = system: Human immunodeficiency virus 1; experiment: as §1, with “G190A/K103N double” for “K103N”; assay type: functional, organism-based, HEK293T
[6] = system: Human immunodeficiency virus 1; experiment: as §1, with “V108I/K103N double” for “K103N”; assay type: functional, organism-based, HEK293T
[7] = system: Human immunodeficiency virus 1; experiment: as §1, with “L100I/K103N double” for “K103N”; assay type: functional, organism-based; details: hek293t
[8] = system: Human immunodeficiency virus 1; assay type: functional, organism-based, HEK293T; details: Human immunodeficiency virus 1, HEK-293T
[9] = system: Human immunodeficiency virus 1; experiment: Antiviral activity against VSVG/wild-type HIV-1 infected in human HEK 293T cells assessed as time during which compound exhibits 50% virologic failure at 1 uM treated at post-viral infection and measured at 48 hrs post-infection by luciferase reporter gene assay; assay type: functional, HEK293T
[10] = Inhibition of HIV-1 reverse transcriptase RNA-dependent DNA polymerase activity assessed as reduction in dTTP incorporation using poly(rA)/oligo(dT) as template/primer incubated for 1 hr followed by transferring into streptavidin plate for 1 hr by absorbance based analysis; design: species or system Human immunodeficiency virus 1
[11] = Inhibition of RNase H activity of HIV-1 reverse transcriptase using DNA/RNA hybrid as substrate incubated for 30 mins by fluorescence based analysis; design: species or system Human immunodeficiency virus 1
[12] = system: Human immunodeficiency virus 1; experiment: Antiviral activity against VSVG/wild-type HIV-1 infected in human HEK 293T cells assessed as inhibition of virus replication preincubated with cells for 15 mins prior to viral infection and measured at 48 hrs post-infection by luciferase reporter gene assay; assay type: functional, organism-based, HEK293T; details: Human immunodeficiency virus 1, HEK-293T
[13] = Human immunodeficiency virus 1, HEK-293T

| Compound | CC50 [1] [nM] | EC50 [2] [nM] | EC50 ([3]; hek293t) [nM] | EC50 [4, 13] [nM] | EC50 ([5]; hek293t) [nM] | EC50 [6, 13] [nM] | EC50 [7] [nM] | EC50 [8] [nM] | FT50 [9] [h] | IC50 [10] [nM] | IC50 [11] [nM] | EC50 [12] [nM] | EC50 [5, 13] [nM] | EC50 ([6]; hek293t) [nM] | EC50 [3, 13] [nM] | EC50 ([4]; hek293t) [nM] |
| --- | --- | --- | --- | --- | --- | --- | --- | --- | --- | --- | --- | --- | --- | --- | --- | --- |
| O=C1Nc2ccc(Cl)cc2[C@@](C#CC2CC2)(C(F)(F)F)O1 [EFAVIRENZ] | 23700 | 30 | 120 | 2 | 180 | 60 | 1080 | 50 | 9.4 |  |  |  |  |  |  |  |
| Cc1cn([C@H]2C[C@H](N=[N+]=[N-])[C@@H](CO)O2)c(=O)[nH]c1=O [ZIDOVUDINE] |  |  |  |  |  |  |  |  | 8.5 |  |  |  |  |  |  |  |
| CCCCOn1cc(CC(=O)Nc2ccncc2Cl)c2ccccc21 | 22100 |  | 1420 | 40 |  |  | 430 |  |  | 80 | > 100000 | 40 | 700 | 560 |  |  |
| Cc1nnc(C(=O)NC(C)(C)c2nc(C(=O)NCc3ccc(F)cc3)c(O)c(=O)n2C)o1 |  |  |  |  |  |  |  |  | 12.2 |  |  |  |  |  |  |  |
| CCCOn1cc(CC(=O)Nc2ccccc2Cl)c2ccccc21 | 29500 | > 10000 |  |  |  | > 10000 | 8950 | > 10000 |  | 270 | > 100000 | 290 | > 10000 |  | > 10000 | 2130 |
